As a reminder, the IC50 is the concentration that inhibits the measured activity by half.

Sequence of baculovirus-expressed ALK (Q9UM73 19-1620): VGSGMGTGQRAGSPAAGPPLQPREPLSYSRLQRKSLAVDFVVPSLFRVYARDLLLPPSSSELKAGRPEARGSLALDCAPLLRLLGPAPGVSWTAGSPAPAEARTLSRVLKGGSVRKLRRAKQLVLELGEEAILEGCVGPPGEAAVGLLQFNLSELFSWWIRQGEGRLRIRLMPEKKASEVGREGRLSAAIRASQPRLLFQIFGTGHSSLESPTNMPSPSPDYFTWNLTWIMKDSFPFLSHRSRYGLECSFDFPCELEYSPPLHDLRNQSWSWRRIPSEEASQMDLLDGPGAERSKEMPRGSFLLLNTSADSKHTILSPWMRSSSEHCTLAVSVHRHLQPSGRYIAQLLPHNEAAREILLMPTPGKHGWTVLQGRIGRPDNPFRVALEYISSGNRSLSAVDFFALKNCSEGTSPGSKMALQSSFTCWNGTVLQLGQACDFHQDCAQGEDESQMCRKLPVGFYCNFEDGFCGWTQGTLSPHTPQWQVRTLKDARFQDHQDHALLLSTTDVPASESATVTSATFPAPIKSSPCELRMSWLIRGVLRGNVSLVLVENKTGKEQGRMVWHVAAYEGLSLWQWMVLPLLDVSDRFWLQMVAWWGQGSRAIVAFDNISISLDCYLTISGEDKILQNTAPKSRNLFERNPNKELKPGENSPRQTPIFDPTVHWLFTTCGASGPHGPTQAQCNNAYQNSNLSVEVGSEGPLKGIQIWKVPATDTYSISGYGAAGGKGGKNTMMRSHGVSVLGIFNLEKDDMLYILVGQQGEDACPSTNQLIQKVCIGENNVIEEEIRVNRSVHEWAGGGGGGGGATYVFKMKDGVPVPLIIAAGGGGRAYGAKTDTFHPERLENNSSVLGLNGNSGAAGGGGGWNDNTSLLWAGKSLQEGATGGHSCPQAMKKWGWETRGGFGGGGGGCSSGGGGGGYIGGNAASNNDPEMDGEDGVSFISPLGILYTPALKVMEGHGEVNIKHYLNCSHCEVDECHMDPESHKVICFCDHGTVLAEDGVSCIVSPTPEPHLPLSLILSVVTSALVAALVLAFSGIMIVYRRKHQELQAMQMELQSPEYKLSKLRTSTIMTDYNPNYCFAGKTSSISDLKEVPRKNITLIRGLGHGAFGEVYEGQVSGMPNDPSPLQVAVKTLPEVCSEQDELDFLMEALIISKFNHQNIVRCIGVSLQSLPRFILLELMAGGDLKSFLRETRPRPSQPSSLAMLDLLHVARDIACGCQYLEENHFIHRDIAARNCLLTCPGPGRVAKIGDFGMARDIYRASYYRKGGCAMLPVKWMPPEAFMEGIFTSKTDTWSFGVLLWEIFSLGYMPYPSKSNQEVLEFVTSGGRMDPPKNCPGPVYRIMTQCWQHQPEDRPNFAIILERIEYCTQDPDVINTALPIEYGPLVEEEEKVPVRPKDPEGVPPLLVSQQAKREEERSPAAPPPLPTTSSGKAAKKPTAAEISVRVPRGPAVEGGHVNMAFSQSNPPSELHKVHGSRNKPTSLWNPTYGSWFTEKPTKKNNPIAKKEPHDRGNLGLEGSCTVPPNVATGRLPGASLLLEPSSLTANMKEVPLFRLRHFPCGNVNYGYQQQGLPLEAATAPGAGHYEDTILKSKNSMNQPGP

The assay addresses baculovirus-expressed ALK (Homo sapiens, UniProt Q9UM73). As to the kind of experiment: ALK Kinase Assay (ELISA/TRF, PLC-γ substrate). Also: 1 µM ATP (Km level). The note with it: read-out: ALK Kinase Inhibition (IC50). It counts as biochemical. The gist of the method: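 Read-out: TRF of europium-labeled anti-phosphotyrosine antibody bound to phosphorylated GST–PLC-γ coated at 10 μg/mL. Kinase step used 30 ng/ml ALK, 37° C, 15 minutes. IC50 values fitted by nonlinear sigmoidal dose-response (variable slope).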
Turning to `O=C(NCC(c1ccccc1)c1ccccc1)c1ccc(-c2cnc3c(c2)N(Cc2cc(Cl)ccc2C(F)(F)F)CCN3)cc1` [Example 391, 4-{1-[5-Chloro-2-(trifluoromethyl)benzyl]-1,2,3,4-tetrahydropyrido[2,3-b]pyrazin-7-yl}-N-(2,2-diphenylethyl)benzamide], the IC50 is 100 to 1000 nM.

For the compound `CC(=O)N1CCN(C(=O)c2ccc(-c3cnc4c(c3)N(Cc3cc(Cl)ccc3C(F)(F)F)CCN4)cc2)CC1` [Example 392, 1-[4-(4-{1-[5-Chloro-2-(trifluoromethyl)benzyl]-1,2,3,4-tetrahydropyrido[2,3-b]pyrazin-7-yl}benzoyl)piperazin-1-yl]ethanone], the IC50 is under 100 nM.

Regarding `CN1CCC(NC(=O)c2ccc(-c3cnc4c(c3)N(Cc3cc(Cl)ccc3C(F)(F)F)CCN4)cc2)CC1` [Example 393, 4-{1-[5-Chloro-2-(trifluoromethyl)benzyl]-1,2,3,4-tetrahydropyrido[2,3-b]pyrazin-7-yl}-N-(1-methylpiperidin-4-yl)benzamide], the IC50 is under 100 nM.

Take `O=C(c1ccc(-c2cnc3c(c2)N(Cc2cc(Cl)ccc2C(F)(F)F)CCN3)cc1)N1CCN(CCc2ccccn2)CC1` [Example 394, (4-{1-[5-Chloro-2-(trifluoromethyl)benzyl]-1,2,3,4-tetrahydropyrido[2,3-b]pyrazin-7-yl}phenyl)-[4-(2-pyridin-2-yl-ethyl)piperazin-1-yl]methanone]: the IC50 is under 100 nM.

Take `O=C(NCc1ccc(OC(F)(F)F)cc1)c1ccc(-c2cnc3c(c2)N(Cc2cc(Cl)ccc2C(F)(F)F)CCN3)cc1` [Example 395, 4-{1-[5-Chloro-2-(trifluoromethyl)benzyl]-1,2,3,4-tetrahydropyrido[2,3-b]pyrazin-7-yl}-N-[4-(trifluoromethoxy)benzyl]benzamide]: the IC50 lay in the range of 100 to 1000 nM.

`O=C(NCc1ccc(C(F)(F)F)cc1)c1ccc(-c2cnc3c(c2)N(Cc2cc(Cl)ccc2C(F)(F)F)CCN3)cc1` [Example 396, 4-{1-[5-Chloro-2-(trifluoromethyl)benzyl]-1,2,3,4-tetrahydropyrido[2,3-b]pyrazin-7-yl}-N-[4-(trifluoromethyl)benzyl]benzamide]: the IC50 lay in the range of 100 to 1000 nM.

On to `O=C(NCc1cc(C(F)(F)F)cc(C(F)(F)F)c1)c1ccc(-c2cnc3c(c2)N(Cc2cc(Cl)ccc2C(F)(F)F)CCN3)cc1` [Example 397, N-[3,5-Bis(trifluoromethyl)benzyl]-4-{1-[5-Chloro-2-(trifluoromethyl)benzyl]-1,2,3,4-tetrahydropyrido[2,3-b]pyrazin-7-yl}benzamide], for which the IC50 is 100 to 1000 nM.

`O=C(NCCc1cccs1)c1ccc(-c2cnc3c(c2)N(Cc2cc(Cl)ccc2C(F)(F)F)CCN3)cc1` [Example 398, 4-{1-[5-Chloro-2-(trifluoromethyl)benzyl]-1,2,3,4-tetrahydropyrido[2,3-b]pyrazin-7-yl}-N-(2-thiophen-2-yl-ethyl)benzamide]: the IC50 lay in the range of 100 to 1000 nM.

Consider `O=C(NC(c1ccccc1)c1ccccc1)c1ccc(-c2cnc3c(c2)N(Cc2cc(Cl)ccc2C(F)(F)F)CCN3)cc1` [Example 399, N-Benzhydryl-4-{1-[5-chloro-2-(trifluoromethyl)benzyl]-1,2,3,4-tetrahydropyrido[2,3-b]pyrazin-7-yl}benzamide], for which the IC50 was 1000 to 10000 nM.

On to `O=C(NCc1ccncc1)c1ccc(-c2cnc3c(c2)N(Cc2cc(Cl)ccc2C(F)(F)F)CCN3)cc1` [Example 400, 4-{1-[5-Chloro-2-(trifluoromethyl)benzyl]-1,2,3,4-tetrahydropyrido[2,3-b]pyrazin-7-yl}-N-pyridin-4-ylmethylbenzamide], for which the IC50 was 100 to 1000 nM.

In the case of `O=C(NCc1cccnc1)c1ccc(-c2cnc3c(c2)N(Cc2cc(Cl)ccc2C(F)(F)F)CCN3)cc1` [Example 401, 4-{1-[5-Chloro-2-(trifluoromethyl)benzyl]-1,2,3,4-tetrahydropyrido[2,3-b]pyrazin-7-yl}-N-pyridin-3-ylmethylbenzamide], the IC50 fell in the range of 100 to 1000 nM.

In the case of `CC(C)NC(=O)CN1CCN(C(=O)c2ccc(-c3cnc4c(c3)N(Cc3cc(Cl)ccc3C(F)(F)F)CCN4)cc2)CC1` [Example 402, 2-[4-(4-{1-[5-Chloro-2-(trifluoromethyl)benzyl]-1,2,3,4-tetrahydropyrido[2,3-b]pyrazin-7-yl}benzoyl)piperazin-1-yl]-N-isopropylacetamide], the IC50 was under 100 nM.

With `Cc1cc(N2CCN(C(=O)c3ccc(-c4cnc5c(c4)N(Cc4cc(Cl)ccc4C(F)(F)F)CCN5)cc3)CC2)c2ccccc2n1` [Example 403, (4-{1-[5-Chloro-2-(trifluoromethyl)benzyl]-1,2,3,4-tetrahydropyrido[2,3-b]pyrazin-7-yl}phenyl)-[4-(2-methylquinolin-4-yl)piperazin-1-yl]methanone], the IC50 is under 100 nM.

On to `COCCNC(=O)c1ccc(-c2cnc3c(c2)N(Cc2cc(Cl)ccc2C(F)(F)F)CCN3)cc1` [Example 404, 4-{1-[5-Chloro-2-(trifluoromethyl)benzyl]-1,2,3,4-tetrahydropyrido[2,3-b]pyrazin-7-yl}-N-(2-methoxyethyl)benzamide], for which the IC50 was under 100 nM.

For `NS(=O)(=O)c1ccc(CCNC(=O)c2ccc(-c3cnc4c(c3)N(Cc3cc(Cl)ccc3C(F)(F)F)CCN4)cc2)cc1` [Example 405, 4-{1-[5-Chloro-2-(trifluoromethyl)benzyl]-1,2,3,4-tetrahydropyrido[2,3-b]pyrazin-7-yl}-N-[2-(4-sulfamoylphenyl)ethyl]benzamide], the IC50 was in the range of 100 to 1000 nM.

For `O=C(c1ccc(-c2cnc3c(c2)N(Cc2cc(Cl)ccc2C(F)(F)F)CCN3)cc1)N1CCN(c2cnccn2)CC1` [Example 406, (4-{1-[5-Chloro-2-(trifluoromethyl)benzyl]-1,2,3,4-tetrahydropyrido[2,3-b]pyrazin-7-yl}phenyl)-(2,3,5,6-tetrahydro[1,2′]bipyrazinyl-4-yl)methanone], the IC50 is under 100 nM.

As for `O=C(NCc1csc(-c2ccccc2)n1)c1ccc(-c2cnc3c(c2)N(Cc2cc(Cl)ccc2C(F)(F)F)CCN3)cc1` [Example 407, 4-{1-[5-Chloro-2-(trifluoromethyl)benzyl]-1,2,3,4-tetrahydropyrido[2,3-b]pyrazin-7-yl}-N-(2-phenylthiazol-4-ylmethyl)benzamide], the IC50 lay in the range of 100 to 1000 nM.

Consider `O=C(c1ccc(-c2cnc3c(c2)N(Cc2cc(Cl)ccc2C(F)(F)F)CCN3)cc1)N1CCOCC1` [Example 408, (4-{1-[5-Chloro-2-(trifluoromethyl)benzyl]-1,2,3,4-tetrahydropyrido[2,3-b]pyrazin-7-yl}phenyl)morpholin-4-ylmethanone], for which the IC50 lay within 100 to 1000 nM.

Regarding `O=C(NCc1cccc2ccccc12)c1ccc(-c2cnc3c(c2)N(Cc2cc(Cl)ccc2C(F)(F)F)CCN3)cc1` [Example 409, 4-{1-[5-Chloro-2-(trifluoromethyl)benzyl]-1,2,3,4-tetrahydropyrido[2,3-b]pyrazin-7-yl}-N-naphthalen-1-ylmethylbenzamide], the IC50 fell in the range of 1000 to 10000 nM.

Turning to `O=C(NC1CCc2ccccc21)c1ccc(-c2cnc3c(c2)N(Cc2cc(Cl)ccc2C(F)(F)F)CCN3)cc1` (stereo not shown) [Example 410, 4-{1-[5-Chloro-2-(trifluoromethyl)benzyl]-1,2,3,4-tetrahydropyrido[2,3-b]pyrazin-7-yl}-N-indan-1-ylbenzamide], the IC50 fell in the range of 100 to 1000 nM.

`COc1ccc(N2CCN(C(=O)c3ccc(-c4cnc5c(c4)N(Cc4cc(Cl)ccc4C(F)(F)F)CCN5)cc3)CC2)cc1` [Example 411, (4-{1-[5-Chloro-2-(trifluoromethyl)benzyl]-1,2,3,4-tetrahydropyrido[2,3-b]pyrazin-7-yl}phenyl)-[4-(4-methoxyphenyl)piperazin-1-yl]methanone]: the IC50 was 100 to 1000 nM.

As to `O=C(NCc1ccccc1Cl)c1ccc(-c2cnc3c(c2)N(Cc2cc(Cl)ccc2C(F)(F)F)CCN3)cc1` [Example 412, N-(2-Chlorobenzyl)-4-{1-[5-chloro-2-(trifluoromethyl)benzyl]-1,2,3,4-tetrahydropyrido[2,3-b]pyrazin-7-yl}benzamide], the IC50 fell in the range of 100 to 1000 nM.

With `O=C(NCc1ccc(Cl)cc1)c1ccc(-c2cnc3c(c2)N(Cc2cc(Cl)ccc2C(F)(F)F)CCN3)cc1` [Example 413, N-(4-Chlorobenzyl)-4-{1-[5-chloro-2-(trifluoromethyl)benzyl]-1,2,3,4-tetrahydropyrido[2,3-b]pyrazin-7-yl}benzamide], the IC50 was in the range of 100 to 1000 nM.

For `O=C(NCc1cccc(Cl)c1)c1ccc(-c2cnc3c(c2)N(Cc2cc(Cl)ccc2C(F)(F)F)CCN3)cc1` [Example 414, N-(3-Chloro-benzyl)-4-{1-[5-chloro-2-(trifluoromethyl)benzyl]-1,2,3,4-tetrahydropyrido[2,3-b]pyrazin-7-yl}benzamide], the IC50 lay within 100 to 1000 nM.

For `O=C(c1ccc(-c2cnc3c(c2)N(Cc2cc(Cl)ccc2C(F)(F)F)CCN3)cc1)N1CCN(C(=O)C2CCCO2)CC1` (stereo not shown) [Example 415, (4-{1-[5-Chloro-2-(trifluoromethyl)benzyl]-1,2,3,4-tetrahydropyrido[2,3-b]pyrazin-7-yl}phenyl)-[4-(tetrahydrofuran-2-carbonyl)piperazin-1-yl]methanone], the IC50 is under 100 nM.

`O=C(NCCc1ccccc1)c1ccc(-c2cnc3c(c2)N(Cc2cc(Cl)ccc2C(F)(F)F)CCN3)cc1` [Example 416, 4-{1-[5-Chloro-2-(trifluoromethyl)benzyl]-1,2,3,4-tetrahydropyrido[2,3-b]pyrazin-7-yl}-N-phenethylbenzamide]: the IC50 lay in the range of 100 to 1000 nM.

`O=C(NCC1CCCO1)c1ccc(-c2cnc3c(c2)N(Cc2cc(Cl)ccc2C(F)(F)F)CCN3)cc1` (stereo not shown) [Example 417, 4-{1-[5-Chloro-2-(trifluoromethyl)benzyl]-1,2,3,4-tetrahydropyrido[2,3-b]pyrazin-7-yl}-N-(tetrahydrofuran-2-ylmethyl)benzamide]: the 50% inhibitory concentration (IC50) fell in the range of 100 to 1000 nM.

For `COc1cccc(CNC(=O)c2ccc(-c3cnc4c(c3)N(Cc3cc(Cl)ccc3C(F)(F)F)CCN4)cc2)c1` [Example 418, 4-{1-[5-Chloro-2-(trifluoromethyl)benzyl]-1,2,3,4-tetrahydropyrido[2,3-b]pyrazin-7-yl}-N-(3-methoxybenzyl)benzamide], the IC50 was 100 to 1000 nM.

The values are drawn from US7601716B2, “Pyridopyrazines and derivatives thereof as ALK and c-Met inhibitors” (Cephalon, Inc., priority 2006, dated 2009).
